Like-named read-outs stand apart in the source and are kept apart here.
Experiments:
BromoTag-Brd2 = target: T1, BromoTag-Brd2 (Homo sapiens, UniProt O60885+P40337, L387A); assay: Dose-response degradation assay (western blot, 6 h) in heterozygous BromoTag-Brd2 HEK293 cells; type: cell-based; conditions: for pDC50: second-generation B&H-PROTACs (diastereomeric mixtures), mean (±S.E) of three experiments; for hook effect: at the higher concentrations used, 1-10 μM
T1 construct: comprising residues 368-440 of human Brd4; Brd2 (endogenous protein, fusion partner in the same polypeptide); eGFP-P2A (upstream marker in the knock-in cassette) (N, cleaved yes); expressed in transfected cells; host or cells: HEK293, heterozygous CRISPR knock-in at the endogenous BRD2 locus
Procedure: Dose-response Degradation Assays. All dose-response degradation assays were performed on the genotype verified heterozygous BromoTag-Brd2 HEK293 cell line. Heterozygous BromoTag-Brd2 HEK293 cells were plated at a density of 5×10^5 cells per well of a six healthy plate a day before initiation of the titration experiment. PROTAC compounds were dissolved in DMSO at a concentration of 10 mM, from these stock concentrations, PROTAC compounds were diluted to appropriate concentrations using DMSO in the range of 10 μM-1 nM. […] Control compounds such as MZ1, cis-MZ1 were similarly dissolved in DMSO to the appropriate concentration. […] Cells were washed twice with PBS before being harvested.
Western Blotting. […] The membranes were blocked for 1 h prior to incubation with the primary antibodies using 5% Milk TBST. […] Following overnight incubation with the primary antibodies at 4° C., the membranes were incubated with secondary antibodies (Anti-rabbit, Abcam AB216773, 1:5000 or anti-mouse, Abcam AB216774, 1:5000) and hFAB™ Rhodamine Anti-Tubulin Antibody (Biorad, 12004165, 1:10000) for one h and then imaged with a Bio-Rad imager (LI-COR Biosciences). All western blots were analysed for band intensities using Image Lab from Bio-Rad (LI-COR, Biosciences). The data extracted from these blots were then plotted and analysed using Prism (v. 8.2.0, GraphPad).

[1] = tested on: untagged Brd2 and endogenous Brd3 and Brd4; assay: Off-target degradation of endogenous BET proteins (western blot) in BromoTag-Brd2 HEK293 cells; type: cell-based, human; conditions: 1 nM to 10 μM; 6 h
Procedure: Dose-response Degradation Assays. All dose-response degradation assays were performed on the genotype verified heterozygous BromoTag-Brd2 HEK293 cell line. Heterozygous BromoTag-Brd2 HEK293 cells were plated at a density of 5×10^5 cells per well of a six healthy plate a day before initiation of the titration experiment. PROTAC compounds were dissolved in DMSO at a concentration of 10 mM, from these stock concentrations, PROTAC compounds were diluted to appropriate concentrations using DMSO in the range of 10 μM-1 nM. The compounds were then added to a 2 mL of DMEM (Invitrogen, Carlsebad, CA, USA) supplemented with 10% (v/v) Fetal bovine serum (FBS) (Thermo Fisher, Waltham, MA, USA) and 1% (v/v) penicillin/streptomycin (pen/strep) (#15140122, Thermo Fisher, Waltham, MA, USA) and added to the cells at initiation of the experiment. Control compounds such as MZ1, cis-MZ1 were similarly dissolved in DMSO to the appropriate concentration. All titration experiment were performed for a total of 6 hours prior to being harvested and were kept at 37° C., 5% CO2, and 95% humidity once treatment was applied until right before harvesting. Cells were washed twice with PBS before being harvested.
Western Blotting. […] Total protein quantity was determined using the BCA protein assay (#23225, Pierce, Rockford, Illinois). Protein concentration was determined using the BCA assay (ThermoFisher Scientific, 23225). […] All western blots were analysed for band intensities using Image Lab from Bio-Rad (LI-COR, Biosciences). The data extracted from these blots were then plotted and analysed using Prism (v. 8.2.0, GraphPad).
Development of a Knock-in Cell Line with BromoTag fused to endogenous Brd2 using CRISPR. […] To this end, the endogenous BET family protein Brd2 was chosen as a model target, due to the availability of well-established antibody for Brd2 detection, and expression of a single protein isoform as well detected band in the western blot (Filippakopoulos, P.; Knapp, S., Nat Rev Drug Discov. 2014, 13 (5), 337-356). […]

[2] = 6 h, range over the two antibodies
[3] = Ab: Brd2, second-generation B&H-PROTACs, 6 h
[4] = Ab: Brd4^BD2 L387A, second-generation B&H-PROTACs, 6 h

T1 sequence (P40337 whole entry, other chains not shown, the tested form may be a part): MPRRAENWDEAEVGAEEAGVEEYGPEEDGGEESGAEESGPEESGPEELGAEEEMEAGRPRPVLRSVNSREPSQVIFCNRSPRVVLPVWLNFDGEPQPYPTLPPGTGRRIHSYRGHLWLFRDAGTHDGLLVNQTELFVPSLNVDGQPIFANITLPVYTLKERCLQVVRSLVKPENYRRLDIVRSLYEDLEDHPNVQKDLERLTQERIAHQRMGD

`CC[C@@H](C(=O)OCCOCCOCCOCC(=O)N[C@H](C(=O)N1C[C@H](O)C[C@H]1C(=O)NCc1ccc(-c2scnc2C)cc1)C(C)(C)C)[C@@H]1N=C(c2ccc(Cl)cc2)c2c(sc(C)c2C)-n2c(C)nnc21` (relative stereo) [ET-OMZ1 (23), (S)-13-((2S,4R)-4-hydroxy-2-((4-(4-methylthiazol-5-yl)benzyl)carbamoyl)pyrrolidine-1-carbonyl)-14,14-dimethyl-11-oxo-3,6,9-trioxa-12-azapentadecyl (R*)-2-((S*)-4-(4-chlorophenyl)-2,3,9-trimethyl-6H-thieno[3,2-f][1,2,4]triazolo[4,3-a][1,4]diazepin-6-yl)butanoate] was tested, and the DC50 (BromoTag-Brd2; [2]) was 0.013 to 0.08 µM, the pDC50 (BromoTag-Brd2; Ab: Brd2, 6 h) was 7.9 ± 0.2 and the pDC50 (BromoTag-Brd2; Ab: Brd4^BD2 L387A, 6 h) was 7.1. The Dmax (BromoTag-Brd2; HEK293, Ab: Brd4^BD2 L387A, second-generation B&H-PROTACs, 6 h) was 90%, the Dmax (BromoTag-Brd2; HEK293, read-out: Dmax, BromoTag-Brd2, 6 h) was over 75% and the hook effect (BromoTag-Brd2; 6 h) was “strong onset of the hook effect”. For the same compound, the “off-target degradation of untagged Brd2 or the other endogenous BET proteins” value [1] was “no observable off-target degradation”.
With `CC[C@@H](C(=O)NCCOCCCOCC(=O)N[C@H](C(=O)N1C[C@H](O)C[C@H]1C(=O)N[C@@H](C)c1ccc(-c2scnc2C)cc1)C(C)(C)C)[C@@H]1N=C(c2ccc(Cl)cc2)c2c(sc(C)c2C)-n2c(C)nnc21` (relative stereo) [ET-ARV-771 (21), (2S,4R)-1-((2S,15R*)-(tert-butyl)-15-((S*)-4-(4-chlorophenyl)-2,3,9-trimethyl-6H-thieno[3,2-f][1,2,4]triazolo[4,3-a][1,4]diazepin-6-yl)-4,14-dioxo-6,10-dioxa-3,13-diazaheptadecanoyl)-4-hydroxy-N—((S)-1-(4-(4-methylthiazol-5-yl)phenyl)ethyl)pyrrolidine-2-carboxamide] the DC50 (BromoTag-Brd2; 6 h) was about 1 µM, the “Dmax, BromoTag-Brd2” value (BromoTag-Brd2; 6 h) was under 70% and the pDC50 (BromoTag-Brd2; Ab: Brd2, 6 h) was 5.7 ± 1.8. The “Dmax (%)” value (BromoTag-Brd2; [3]) was 51%, the pDC50 (BromoTag-Brd2; Ab: Brd4^BD2 L387A, 6 h) was 6.1 ± 0.3 and the “Dmax (%)” value (BromoTag-Brd2; [4]) was 69%. For the same compound, the hook effect (BromoTag-Brd2; 6 h) was “strong hook effect”.
For `CC[C@@H](C(=O)NCCOCCOCCOCC(=O)N[C@H](C(=O)N1C[C@H](O)C[C@H]1C(=O)NCc1ccc(-c2scnc2C)cc1)C(C)(C)C)[C@@H]1N=C(c2ccc(Cl)cc2)c2c(sc(C)c2C)-n2c(C)nnc21` (relative stereo) [ET-MZ1 (19), (2S,4R)-1-((2S,17R*)-(tert-butyl)-17-((S*)-4-(4-chlorophenyl)-2,3,9-trimethyl-6H-thieno[3,2-f][1,2,4]triazolo[4,3-a][1,4]diazepin-6-yl)-4,16-dioxo-6,9,12-trioxa-3,15-diazanonadecanoyl)-4-hydroxy-N-(4-(4-methylthiazol-5-yl)benzyl)pyrrolidine-2-carboxamide], the “off-target degradation of untagged Brd2 or the other endogenous BET proteins” value [1] was “no observable off-target degradation”.
With `Cc1ncsc1-c1ccc([C@H](C)NC(=O)[C@@H]2C[C@@H](O)CN2C(=O)[C@@H](NC(=O)COCCCOCCNC(=O)[C@H](C)[C@@H]2N=C(c3ccc(Cl)cc3)c3c(sc(C)c3C)-n3c(C)nnc32)C(C)(C)C)cc1` (relative stereo) [ME-ARV-771 (20), (2S,4R)-1-((2S,15R*)-(tert-butyl)-15-((S*)-4-(4-chlorophenyl)-2,3,9-trimethyl-6H-thieno[3,2-f][1,2,4]triazolo[4,3-a][1,4]diazepin-6-yl)-4,14-dioxo-6,10-dioxa-3,13-diazahexadecanoyl)-4-hydroxy-N—((S)-1-(4-(4-methylthiazol-5-yl)phenyl)ethyl)pyrrolidine-2-carboxamide] the DC50 (BromoTag-Brd2; [2]) was 0.32 to 0.4 µM, the pDC50 (BromoTag-Brd2; Ab: Brd2, 6 h) was 6.4 ± 0.6 and the “Dmax (%)” value (BromoTag-Brd2; [3]) was 60%. The pDC50 (BromoTag-Brd2; Ab: Brd4^BD2 L387A, 6 h) was 6.5 ± 0.4 and the “Dmax (%)” value (BromoTag-Brd2; [4]) was 70%.

Reference: patent US20250130239A1, “PROTEIN DEGRADER” (University of Dundee, priority 2021, published 2025)
